The values below come from paper PMC3910367 (Science signaling, 2013).

Experiment [1] concerns LNCaP and PC-3 cells. Description: MTT viability assay in prostate cancer cells. The class given is cell-based. As to conditions: read-out: IC50, antiproliferative effect (cell viability).
Experiment [2] deals with normal prostate epithelial cells. Description: MTT viability assay in normal prostate epithelial cells. The class given is cell-based. As to conditions: for apoptosis in normal prostate epithelial cells: fig. S1A. A general note: Tetrazolium dyes change colour on reduction, which living cells bring about.
Experiment [3] concerns Akt. The experiment is described as follows: Western blot of Akt phosphorylation in prostate cancer cells. The class given is cell-based. As to conditions: for phosphorylation at Ser473 in Akt / phosphorylation at Thr308 in Akt: LNCaP and PC-3 cells, 24 hours; for concentrations required to induce PHLPP1-mediated Akt inhibition: prostate cancer cells. On the technique in general: Immunoblotting shows a protein as a band on a membrane.

Experiment [4] relates to mTORC2. The experiment is described as follows: Western blot of mTORC2 components and downstream targets. The class given is cell-based. As to conditions: fig. S2C.
The subject of experiment [5] is PIP3. The experiment is described as follows: Radiometric analysis of phosphoinositide production. The class given is cell-based. The note with it: LNCaP cells, 500 μM, 6 hours.
For experiment [6], the system named is LNCaP-abl cells. The experiment is described as follows: MTT viability assay in LNCaP-abl cells. The class given is cell-based. As to conditions: read-out: IC50, antiproliferative effect, fig. S5D.
Experiment [7] deals with LNCaP cells. The class given is cell-based. The note with it: 24 hours.
The subject of experiment [8] is LNCaP cells. The experiment is described as follows: Cholesterol content of membrane subfractions. The class given is cell-based. As to conditions: fractions 3 and 4.
For experiment [9], the target named is T1, PH domain of PHLPP1 (Homo sapiens, UniProt O60346).
T1 sequence (O60346 536-636 limits assumed): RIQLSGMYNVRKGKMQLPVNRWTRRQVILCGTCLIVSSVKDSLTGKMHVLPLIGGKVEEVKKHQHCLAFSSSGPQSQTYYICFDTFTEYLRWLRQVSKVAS
The experiment is described as follows: SPR binding to GST-tagged PH domain of PHLPP1. (In general: Surface plasmon resonance follows binding to a sensor surface in real time, without labels.)

The target in experiment [10] is Y38G PH domain mutant of Akt (Homo sapiens, UniProt P31749, Y38G). The experiment is described as follows: SPR binding to Y38G Akt PH domain mutant. The note with it: versus wild-type PH domain.
The target of experiment [11] is PH domain of Akt (Homo sapiens, UniProt P31749). Description: SPR binding to GST-tagged PH domain of Akt. As to conditions: read-out: Kd, wild-type Akt PH domain.

SMILES strings stand for the structures. Where two headings read alike, the source gives them in different places.

Sequence of PH domain of Akt (P31749 5-108 limits assumed): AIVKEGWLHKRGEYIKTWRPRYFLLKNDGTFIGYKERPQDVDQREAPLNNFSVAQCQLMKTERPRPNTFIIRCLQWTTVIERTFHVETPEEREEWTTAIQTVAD
Sequence of Y38G PH domain mutant of Akt (P31749 5-108 Y38G limits assumed): as the sequence (P31749 5-108 limits assumed) above, with Y34G counted along it

For orientation: IC50 means the concentration needed to halve the response being measured. On to `Cc1c(O)cc2c(c1C)O[C@](C)(CCC[C@H](C)CCC[C@H](C)CCCC(C)C)CC2` [γ-tocopherol], for which the IC50 in [1] (24 h) lay in the range of 100 to 150 µM. Besides, the “apoptosis in normal prostate epithelial cells” value in experiment [2] is given as “resistant”. Further, in [3], the “phosphorylation at Ser473 in Akt” value is recorded as “dose-dependently reduced”, the “phosphorylation at Thr308 in Akt” value is “without altering” and the “concentrations required to induce PHLPP1-mediated Akt inhibition” value is “greater than 150 μM”. In addition, the “phosphorylation of SGK or PKCα (mTORC2 downstream targets)” value (“phosphorylation of SGK or PKCα” below) in experiment [4] is reported as “no effect”.
For `Cc1c(C)c2c(c(C)c1O)CC[C@@](C)(CCC[C@H](C)CCC[C@H](C)CCCC(C)C)O2` [α-tocopherol], the IC50 in experiment [1] (24 h) is ~400 µM. Besides, in experiment [2], the “apoptosis in normal prostate epithelial cells” value is reported as “resistant”. Further, in experiment [3], the “phosphorylation at Ser473 in Akt” value is “dose-dependently reduced”, the “phosphorylation at Thr308 in Akt” value is “without altering” and the “concentrations required to induce PHLPP1-mediated Akt inhibition” value was “greater than 150 μM”. The “phosphorylation of SGK or PKCα” value in experiment [4] is “no effect”. In addition, the PIP3 concentrations entry in experiment [5] is given as “unaffected”.
In general, Kd refers to a measure of binding affinity in units of concentration. Consider `Cc1c(C)c2c(c(C)c1O)CCC(C)(CCCC(C)C)O2` (stereo not drawn) [α-VE5], for which, in experiment [1] (LNCaP and PC-3 cells, MTT, 24 hours, serum-free medium), the IC50 fell in the range of 15 to 20 µM. Also, the IC50 in [2] (read-out: IC50, cell viability, MTT, 24 hours) is ~50 µM. Also, the IC50 in [6] is 10 µM. Also, in experiment [3], the “phosphorylation at Ser473 in Akt” value is recorded as “parallel reduction” and the “phosphorylation at Thr308 in Akt” value is reported as “without disturbing”. In addition, the “phosphorylation of SGK or PKCα” value in experiment [4] is “lack of changes”. Moreover, in experiment [7], the “decrease in phosphorylation of Ser473 in Akt in non-raft fractions” value is recorded as “more than 65%” and the “increase in association of PHLPP1 with the membrane in non-raft fractions” value was “more than 2.5 fold”. Also, in experiment [8], the “reduction of cholesterol content in raft domains” value is given as ≤ 30%. Also, the “binding to PH domains of Akt and PHLPP1 compared” value in [9] was “equal potency”. For the same molecule, the “effect of Y38G mutation on binding affinity for the Akt PH domain” value in [10] is reported as “significantly enhanced”. Moreover, the equilibrium dissociation constant (Kd) in [11] is 3.4 µM.
